Measured values from publication PMC10601815, “αβ,α′β′-Diepoxyketones are mechanism-based inhibitors of nucleophilic cysteine enzymes” (Chemical Communications (Cambridge, England), 2023).
Values joined by “and” are separate entries in the source; they are usually repeats but may differ in a detail not shown here. Equal values may be shown once. Read-outs that look alike come from different tables or passages of the source.

How the values were obtained:
[1] = molecular target: T1, LdtMt2 (Mycobacterium tuberculosis, UniProt I6Y9J2); assay: biochemical; conditions: for IC50: read-out: pIC50 LdtMt2 (converted)
[2] = molecular target: T1, LdtMt2; type: binding
[3] = molecular target: T1, LdtMt2; assay: biochemical
[4] = for kchem (kinetic rate constant for reactivity with GSH): 500 nM L-glutathione, 10 µM Probe 1, pH 7.2; for half-life (t1/2) of reaction with GSH: buffer
[5] = 1 µM LdtMt2, inhibitor 20 µM (100 µM for 12), rt, 15 min
[6] = 1 µM LdtMt2, inhibitor 20 µM (100 µM for 12), rt, 24 h

T1 sequence (I6Y9J2 56-408): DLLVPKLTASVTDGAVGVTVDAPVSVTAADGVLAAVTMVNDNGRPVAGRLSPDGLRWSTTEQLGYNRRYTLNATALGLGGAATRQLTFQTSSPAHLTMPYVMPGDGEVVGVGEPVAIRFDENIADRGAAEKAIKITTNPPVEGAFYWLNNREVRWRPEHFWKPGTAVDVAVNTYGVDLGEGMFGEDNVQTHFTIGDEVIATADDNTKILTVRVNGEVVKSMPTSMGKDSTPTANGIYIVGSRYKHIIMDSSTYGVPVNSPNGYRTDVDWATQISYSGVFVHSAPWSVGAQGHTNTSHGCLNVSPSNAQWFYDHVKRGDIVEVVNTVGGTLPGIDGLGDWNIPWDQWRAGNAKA

With `O=C(c1ccccc1)C1OC1c1ccccc1` (racemic) [Epoxide 12, reference compound] the “inhibition of LdtMt2 in dose-response assays (in words)” value [1] was “did not manifest inhibition”, the “pIC50 LdtMt2” value [1] was less than 4.4 and the “Area (%) 15 min, assignment Retro-aldol fragment (3)” value (“Area (%) 15 min … (3)” below) [2] was 0.0%. The “Area (%) 15 min, assignment Unfragmented (2)” value (shortened to “Area (%) 15 min … (2)”) [2] was 8.6%, the “Area (%) 15 min, assignment Unmodified LdtMt2” value [2] was 91.4% and the “Area (%) 24 h, assignment Retro-aldol fragment (3)” value (“Area (%) 24 h … (3)” for short) [2] was 87.2%. The “Area (%) 24 h, assignment Unfragmented (2)” value (from here on “Area (%) 24 h … (2)”) [2] was 0.0%, the “Area (%) 24 h, assignment Unmodified LdtMt2” value [2] was 12.8% and the “covalent reaction with LdtMt2 (in words)” value [2] was “evidenced covalent reaction”.

In the case of `Cc1cc(C)cc([C@@H]2O[C@H]2C(=O)[C@@H]2O[C@H]2c2cc(C)cc(C)c2)c1` (relative stereo) [DEK 7], the “kinact/KI LdtMt2” value [3] is reported as 80.9 ± 6.74 M⁻¹ s⁻¹, the “Area (%) 15 min, assignment Dha (-34 Da)” value [2] is reported as 0.0% and the “Area (%) 15 min … (3)” value [2] is reported as 43.7%. For the same compound, the “Area (%) 15 min, assignment Unassigned fragment / Fragment II (+56/+57 Da)” value [2] was 0.0%, the “Area (%) 15 min … (2)” value [2] was 44.8% and the “Area (%) 15 min, assignment Unmodified LdtMt2” value [2] was 11.5%. For the same compound, the “Area (%) 24 h, assignment Dha (-34 Da)” value [2] was ~16% and 16.2%, the “Area (%) 24 h … (3)” value [2] was 70.3% and the “Area (%) 24 h … (2)” value [2] was 0.0%. For the same compound, the “Area (%) 24 h, assignment Unmodified LdtMt2” value [2] was 0.0%, the “kchem (kinetic rate constant for reactivity with GSH)” value (from here on “kchem”) [4] was 1.71 ± 0.24 M⁻¹ s⁻¹ and 1.7 ± 0.2 M⁻¹ s⁻¹ and the “half-life (t1/2) of reaction with GSH” value [4] was 24 min.

In the case of `O=C([C@H]1O[C@@H]1c1ccccc1)[C@@H]1O[C@H]1c1ccccc1` [DEK 1], the IC50 ([1]; 15 min preincubation, 100 nM LdtMt2, 25 µM Probe 1, n=4) is reported as 617 nM and 631 nM, the IC50 ([1]; 30 min pre-incubation) is reported as 63.1 nM and the IC50 ([1]; Table S3, 10 min pre-incubation, 100 nM LdtMt2, 25 µM Probe 1) is reported as 1000 nM. For the same compound, the kinact/KI ([3]; 100 nM LdtMt2, 10 µM Probe 1, 3.5 h) was 484 ± 28.4 M⁻¹ s⁻¹, the “Area (%) 15 min, assignment Dha (-34 Da)” value [2, 5] was 0.0% and the “Area (%) 15 min … (3)” value [2, 5] was 23.3%. For the same compound, the “Area (%) 15 min … (2)” value [2, 5] was 74.7%, the “Area (%) 15 min, assignment Unmodified LdtMt2” value [2, 5] was 2.0% and the “Area (%) 24 h, assignment Dha (-34 Da)” value [2, 6] was ~5% and 5.0%. The “Area (%) 24 h … (3)” value [2, 6] was 82.0%, the “Area (%) 24 h … (2)” value [2, 6] was 7.2% and the “Area (%) 24 h, assignment Unmodified LdtMt2” value [2, 6] was 0.0%. The “Area (%) 15 min, assignment Unassigned fragment / Fragment II (+56/+57 Da)” value ([2]; 1 µM LdtMt2, inhibitor 20 µM, rt, 15 min) was 0.0%, the “covalent reaction with LdtMt2 (in words)” value ([2]; 1 µM LdtMt2, inhibitor 20 µM (100 µM for 12)) was “covalently reacts with LdtMt2” and the “time for conversion of the initial adduct (2, +267 Da) into the +160 Da adduct (3)” value ([2]; 1 (20 µM), LdtMt2 (1 µM)) was no more than 2 h. For the same compound, the “kchem” value [4] was less than 0.8 M⁻¹ s⁻¹.

For `Cc1cccc(C)c1C1OC1C(=O)C1OC1c1c(C)cccc1C` (mixture of isomers) [DEK 8], the “inhibition of LdtMt2 in the kinact/KI determination (in words)” value [3] was “no evidence for inhibition”, the “kinact/KI LdtMt2” value [3] was less than 10.0 M⁻¹ s⁻¹ and the “Area (%) 15 min, adduct with assignment N.D. (+309 Da for 5, +80 Da for 8 and 9)” value (“Area (%) 15 min, adduct” for short) [2] was 0.0%. The “Area (%) 15 min … (3)” value [2] was 0.0%, the “Area (%) 15 min, assignment Unmodified LdtMt2” value [2] was 100.0% and the “Area (%) 24 h, adduct with assignment N.D. (+309 Da for 5, +80 Da for 8 and 9)” value (from here on “Area (%) 24 h, adduct”) [2] was 14.9%. For the same compound, the “Area (%) 24 h … (3)” value [2] was 16.3%, the “Area (%) 24 h, assignment Unmodified LdtMt2” value [2] was 68.8% and the “kchem” value [4] was 1.11 ± 0.20 M⁻¹ s⁻¹ and 1.1 ± 0.2 M⁻¹ s⁻¹. The “half-life (t1/2) of reaction with GSH” value [4] was 38 min.

In the case of `O=C(C1OC1c1ccccc1OC(F)(F)F)C1OC1c1ccccc1OC(F)(F)F` (stereo not shown) [DEK 6], the “kinact/KI LdtMt2” value [3] is reported as 140.6 ± 17.1 M⁻¹ s⁻¹, the “Area (%) 15 min … (3)” value [2] is reported as 11.6% and the “Area (%) 15 min, assignment Unassigned fragment / Fragment II (+56/+57 Da)” value [2] is reported as 0.0%. The “Area (%) 15 min … (2)” value [2] was 81.2%, the “Area (%) 15 min, assignment Unmodified LdtMt2” value [2] was 7.2% and the “Area (%) 24 h, assignment Dha (-34 Da)” value [2] was “no evidence for Dha formation”. For the same compound, the “Area (%) 24 h … (3)” value [2] was 93.2%, the “Area (%) 24 h … (2)” value [2] was 0.0% and the “Area (%) 24 h, assignment Unmodified LdtMt2” value [2] was 2.6%. For the same compound, the “kchem” value [4] was less than 0.8 M⁻¹ s⁻¹.

For `O=C1C2(CCCC13OC3c1ccccc1)OC2c1ccccc1` (stereo not shown) [DEK 10], the “pIC50 LdtMt2” value [1] was less than 4.4, the “inhibition of LdtMt2 in the kinact/KI determination (in words)” value [3] was “no evidence for inhibition” and the “kinact/KI LdtMt2” value [3] was less than 10.0 M⁻¹ s⁻¹. The “Area (%) 15 min … (2)” value [2] was 0.0%, the “Area (%) 15 min, assignment Unmodified LdtMt2” value [2] was 100.0% and the “Area (%) 24 h … (2)” value [2] was 9.8%. For the same compound, the “Area (%) 24 h, assignment Unmodified LdtMt2” value [2] was 90.2% and the “kchem” value [4] was less than 0.8 M⁻¹ s⁻¹.

For `O=C1C2(CCCCC13OC3c1ccccc1)OC2c1ccccc1` (stereo not shown) [DEK 11], the “pIC50 LdtMt2” value [1] was less than 4.4, the “Area (%) 15 min, assignment Unmodified LdtMt2” value [2] was 100.0% and the “Area (%) 24 h, assignment Unmodified LdtMt2” value [2] was 100.0%.

With `O=C(C1OC1c1ccc(OC(F)(F)F)cc1)C1OC1c1ccc(OC(F)(F)F)cc1` (stereo not shown) [DEK 4] the “inhibition of LdtMt2 in the kinact/KI determination (in words)” value [3] was “no evidence for inhibition”, the “kinact/KI LdtMt2” value [3] was less than 10.0 M⁻¹ s⁻¹ and the “Area (%) 15 min, assignment Dha (-34 Da)” value [2] was 0.0%. For the same compound, the “Area (%) 15 min … (3)” value [2] was 18.1%, the “Area (%) 15 min … (2)” value [2] was 5.41% and the “Area (%) 15 min, assignment Unmodified LdtMt2” value [2] was 76.5%. For the same compound, the “Area (%) 24 h, assignment Dha (-34 Da)” value [2] was ~2.5% and 2.4%, the “Area (%) 24 h … (3)” value [2] was 97.6% and the “Area (%) 24 h … (2)” value [2] was 0.0%. For the same compound, the “Area (%) 24 h, assignment Unmodified LdtMt2” value [2] was 0.0% and the “kchem” value [4] was less than 0.8 M⁻¹ s⁻¹.

In the case of `COc1ccccc1C1OC1C(=O)C1OC1c1ccccc1OC` (mixture of isomers) [DEK 5], the “kinact/KI LdtMt2” value [3] is reported as 61.1 ± 2.78 M⁻¹ s⁻¹, the “Area (%) 15 min, adduct” value [2] is reported as 0.0% and the “Area (%) 15 min, assignment Dha (-34 Da)” value [2] is reported as 0.0%. The “Area (%) 15 min … (3)” value [2] was 9.0%, the “Area (%) 15 min, assignment Unassigned fragment / Fragment II (+56/+57 Da)” value [2] was 0.0% and the “Area (%) 15 min … (2)” value [2] was 77.9%. The “Area (%) 15 min, assignment Unmodified LdtMt2” value [2] was 2.5%, the “Area (%) 24 h, adduct” value [2] was 4.22% and the “Area (%) 24 h, assignment Dha (-34 Da)” value [2] was ~30% and 30.4%. For the same compound, the “Area (%) 24 h … (3)” value [2] was 39.6%, the “Area (%) 24 h … (2)” value [2] was 0.0% and the “Area (%) 24 h, assignment Unmodified LdtMt2” value [2] was 0.0%. The “kchem” value [4] was less than 0.8 M⁻¹ s⁻¹.

In the case of `O=C(C1OC1c1ccccc1)C1OC1c1ccccc1` (mixture of isomers) [diastereomeric mixture of 1], the “pIC50 LdtMt2” value [1] is reported as 5.59 ± 0.036 and 5.6 ± 0.04.

With `O=C1C2(CCC13OC3c1ccccc1)OC2c1ccccc1` (stereo not shown) [DEK 9] the “kinact/KI LdtMt2” value [3] was 25.8 ± 1.41 M⁻¹ s⁻¹, the “Area (%) 15 min, adduct” value [2] was 6.9% and the “Area (%) 15 min … (3)” value [2] was 68.8%. The “Area (%) 15 min … (2)” value [2] was 21.0%, the “Area (%) 15 min, assignment Unmodified LdtMt2” value [2] was 3.3% and the “Area (%) 24 h, adduct” value [2] was 9.1%. For the same compound, the “Area (%) 24 h … (3)” value [2] was 90.9%, the “Area (%) 24 h … (2)” value [2] was 0.0% and the “Area (%) 24 h, assignment Unmodified LdtMt2” value [2] was 0.0%. The “kchem” value [4] was less than 0.8 M⁻¹ s⁻¹.
